We go through 1 compound from patent US20060173066A1, “Remedy for diabetes” (Kyowa Hakko Kogyo Co., Ltd., priority 2003, published 2006).

Holding throughout (format): in vivo
Assay [1] concerns GK/Jcl rats of a type 2 diabetic model. Kind of assay: Example 4: blood-sugar level after single oral administration in rats. As to conditions: 1,000 mg/kg B.W. oral. Here is the method: GK/Jcl rats (Clea Japan, Inc; male; nine weeks age) (12 mice) of a type 2 diabetic model were divided into two groups each comprising six mice and named group 1 and group 2.
Five ml/kg B.W. of a solvent (0.5% (w/v) methyl cellulose #400) was orally administered to the rats of the group 1. A 200 mg/ml solution of the hydroxyproline in the same solvent was orally administered to the rats of the group 2 so as to make the amount of administration 1,000 mg/kg B.W. Blood was collected from tail vein upon administration of the solvent or the hydroxyproline solution (0 minute) and 30 minutes, 60 minutes and 120 minutes after the administration and blood-sugar levels were measured by a Medisafe Reader GR-101. The value was shown by mean value±standard error (n=6) and statistic ratio of risk (p value) was determined by a t-test.

Assay [2] has the same test system. Kind of assay: Example 5: blood-sugar level after oral glucose load in fasted rats. As to conditions: for Blood-Sugar Level, 30 min: 30 minutes after glucose 2 g/kg; for Blood-Sugar Level, 30 min / Blood-Sugar Level, −30 min / Blood-Sugar Level, 60 min / Blood-Sugar Level, 120 min / Blood-Sugar Level, 0 min: n=6; for Blood-Sugar Level, −30 min: 30 minutes before glucose 2 g/kg (baseline, at dosing), mean ± standard error; for Blood-Sugar Level, 60 min: 60 minutes after glucose 2 g/kg; for Blood-Sugar Level, 120 min: 120 minutes after glucose 2 g/kg; for Blood-Sugar Level, 0 min: upon glucose administration 2 g/kg. The protocol: GK/Jcl rats (Clea Japan, Inc.; male; nine weeks age) (18 mice) of a type 2 diabetic model were divided into three groups each comprising six mice and named groups 1 to 3.
After fasting for 18 hours, 5 ml/kg B.W. of a solvent (0.5% (w/v) methyl cellulose #400) was orally administered to the rats of the group 1. A 60 mg/ml solution of the hydroxyproline in the same solvent was orally administered to the rats of the group 2 so as to make the amount of administration 300 mg/kg B.W. A 200 mg/ml solution of the hydroxyproline in the same solvent was orally administered to the rats of the group 3 so as to make the amount of administration 1,000 mg/kg B.W. After 30 minutes from the oral administration, 2 g/kg B.W. of a 20% (w/v) aqueous solution of glucose was orally administered to the mice of the groups 1 to 3 to load with sugar. Blood was collected from tail vein 30 minutes before the administration of the aqueous glucose solution (−30 minutes), upon the administration (0 minute) and 30 minutes, 60 minutes and 120 minutes after the administration and blood-sugar levels were measured by a Medisafe Reader GR-101.
The value was shown by mean value±standard error (n=6) and statistic ratio of risk (p value) between the groups 1 and 2 and that between the groups 1 and 3 was determined by a one-way layout dispersion analysis and by a Dunnett test.

Assay [3] concerns KK-Ay/Ta Jcl mice of a type 2 diabetic model. Description: Example 1: serum-insulin level after 18 hours fasting in mice fed CE-2 feed with 1% by weight of test substance. From the text:
(§1) KK-Ay/Ta Jcl mice (Clea Japan, Inc.; male; six weeks age) (15 mice) of a type 2 diabetic model were divided into three groups each comprising five mice and named group 1 to group 3.
(§2) The mice of the groups 1 to 3 were made free to take feed and water. A commercially available feed CE-2 (manufactured by Clea Japan, Inc.) was ingested to the mice of group 1. CE-2 to which 1% by weight of trans-4-hydroxy-L-proline (manufactured by Kyowa Hakko Kogyo; hereinafter, abbreviated as hydroxyproline) was added was ingested to the mice of group 2. CE-2 to which 1% by weight of trans-N-acetyl-4-hydroxy-L-proline (manufactured by Kyowa Hakko Kogyo; hereinafter, abbreviated as N-acetylhydroxyproline) was added was ingested to the mice of group 3.
(§3) On the initial day of the test and on the 17th day thereafter, blood was collected from tail vein and blood-sugar level upon non-fasting was measured by a Medisafe Reader GR-101 (manufactured by Thermo Co.). The mice were fasted for 18 hours during the 17th day to the 18th day after the start of the test and whole blood was collected from descending vena cava to prepare serum. The serum-insulin level was measured by a Levi Insulin Kit Mouse-T (manufactured by Shibayagi). The value was shown by mean value±standard error (n=5) and statistic ratio of risk (p value) was determined by a t-test. With regard to the ingested amounts during the test periods, there was no significant difference among the groups 1 to 3.

Assay [4] has the same test system. Description: Example 1: non-fasting blood-sugar level in mice fed CE-2 feed with 1% by weight of test substance.
Description: as §1, §2, §3

Take `O=C(O)[C@@H]1C[C@@H](O)CN1` [hydroxyproline, trans-4-hydroxy-L-proline]: the “antidiabetic action (conclusion from Table 6)” value in assay [1] is listed as “antidiabetic action”. Also, the “Blood-Sugar Level, 30 min” value in assay [1] (30 minutes after administration, mean ± standard error, n=6) came out at 220.3 ± 13.8 mg/dL; in assay [2] (300 mg/kg B.W. oral), 269.5 ± 15.3 mg/dL; in assay [2] (1,000 mg/kg B.W. oral), 226.2 ± 3.0 mg/dL. Moreover, the “Blood-Sugar Level, 60 min” value in assay [1] (60 minutes after administration, mean ± standard error, n=6) is 189.5 ± 10.9 mg/dL; in assay [2] (300 mg/kg B.W. oral), 298.2 ± 7.5 mg/dL; in assay [2] (1,000 mg/kg B.W. oral), 247.3 ± 4.4 mg/dL. The “Blood-Sugar Level, 120 min” value in assay [1] (120 minutes after administration, mean ± standard error, n=6) turned out to be 156.0 ± 6.8 mg/dL; in assay [2] (300 mg/kg B.W. oral) it was 207.5 ± 6.3 mg/dL; in assay [2] (1,000 mg/kg B.W. oral), 181.2 ± 7.3 mg/dL. Further, the “Blood-Sugar Level, 0 min” value in assay [1] (upon administration (baseline), mean ± standard error, n=6) came to 189.2 ± 8.4 mg/dL; in assay [2] (300 mg/kg B.W. oral) it was 144.2 ± 7.2 mg/dL; in assay [2] (1,000 mg/kg B.W. oral), 137.0 ± 6.6 mg/dL. Moreover, the “Blood-Sugar Level, −30 min” value came to 113.3 ± 2.7 mg/dL in assay [2] (300 mg/kg B.W. oral) and 112.2 ± 3.3 mg/dL in assay [2] (1,000 mg/kg B.W. oral). Further, in assay [2] (300 and 1,000 mg/kg B.W. oral, glucose load), the “antidiabetic action (conclusion from Table 7)” value is given as “dose-dependent antidiabetic-action”. In addition, the “antidiabetic action by improving insulin resistance (conclusion from Tables 1 and 2)” value in assay [3] is “show an antidiabetic action by improving the insulin resistance”. Further, the “Serum-Insulin Level” value in assay [3] (18th day after 18 hours fasting, mean ± standard error, n=5) stood at 1.01 ± 0.08 ng/mL. The “antidiabetic action (conclusion from Table 1)” value in assay [4] (17 days) is recorded as “antidiabetic action”. Also, the “Blood-Sugar Level, 17th Day of the Test” value in assay [4] (non-fasting, tail vein blood, 17th day, mean ± standard error, n=5) came to 260.4 ± 10.8 mg/dL. Also, the “Blood-Sugar Level, Initial Day of the Test” value in assay [4] (non-fasting, tail vein blood, initial day (baseline), mean ± standard error, n=5) was 243.0 ± 12.2 mg/dL.
